Assay results as given in PubChem BioAssay (NCI).
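1) Cells in 96-well plates. 2) Compound, 48 h, 5 concentrations. 3) Linear interpolation between surrounding doses. 4) Unreached endpoint = highest concentration. GI50 is the concentration that inhibits growth by half. TGI: total growth inhibition.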

What was measured:
Assay in all cases: DTP human tumour cell line panel, 48 h
RXF 393 renal = test system: RXF 393 renal
UO-31 renal = test system: UO-31 renal
COLO 205 colon = test system: COLO 205 colon
SW-620 colon = test system: SW-620 colon
LOX IMVI melanoma = test system: LOX IMVI melanoma
UACC-62 melanoma = test system: UACC-62 melanoma
A498 renal = test system: A498 renal
SK-OV-3 ovarian = test system: SK-OV-3 ovarian
MDA-MB-435 = test system: MDA-MB-435
SR leukemia = test system: SR leukemia

SMILES	TGI (RXF 393 renal) [µM]	TGI (UO-31 renal) [µM]	TGI (COLO 205 colon) [µM]	TGI (SW-620 colon) [µM]	TGI (LOX IMVI melanoma) [µM]	TGI (UACC-62 melanoma) [µM]	TGI (A498 renal) [µM]	TGI (SK-OV-3 ovarian) [µM]	TGI (MDA-MB-435) [µM]	GI50 (RXF 393 renal) [µM]	GI50 (UO-31 renal) [µM]	GI50 (SW-620 colon) [µM]	GI50 (LOX IMVI melanoma) [µM]	GI50 (UACC-62 melanoma) [µM]	GI50 (A498 renal) [µM]	GI50 (MDA-MB-435) [µM]	GI50 (COLO 205 colon) [µM]	GI50 (SK-OV-3 ovarian) [µM]	TGI (SR leukemia) [µM]
CCOC(=O)C(=O)C1C(=O)Nc2ccccc21 (centres undefined)	> 100	> 100	> 100	> 100	> 100	> 100	> 100												
C[N+](C)([O-])CCCNc1c2ccccc2nc2cccc([N+](=O)[O-])c12	0.349	4.34	0.322		6.59	0.491	0.545	> 29.4	0.647										
Cc1[nH]c(C(=O)Nc2ccc(C(=O)N3CCNCC3)cc2OC(C)C)c(Cl)c1Cl	3.25	2.85		3.59	3.25	3.38	24.7		3.23	1.59	1.44	1.9	1.77	1.8	11.2	1.76			
O=c1[nH]c(=O)n(C2CC(O)C(CO)O2)cc1C(OCC(F)(F)F)OCC(F)(F)F (centres undefined)	> 100	> 100	> 100	> 100	> 100	> 100	> 100	> 100											
CC1=C(SCc2ccccc2)C(=O)c2ccccc2C1=O	30.4		38.9	> 100	38.2	31.8	62.1	44.6	27.9										
COc1cc2c(c(OC)c1OC)-c1ccc(NNC(=S)N(Cc3cccc(C[N+](Cc4cccc(CNC56CC7CC(CC(C7)C5)C6)c4)(Cc4cccc(CNC56CC7CC(CC(C7)C5)C6)c4)Cc4cccc(CN(C(=S)NNc5ccc6c(cc5=O)[C@@H](NC(C)=O)CCc5cc(OC)c(OC)c(OC)c5-6)C56CC7CC(CC(C7)C5)C6)c4)c3)C34CC5CC(CC(C5)C3)C4)c(=O)cc1[C@@H](NC(C)=O)CC2 (some centres undefined)	6.65	7.2	1.52	2.06	2.86	6.38	3.28	7.51	3.5	1.7	2.16	0.814	0.873	1.61	1.07	0.779	0.683	3	
OCCCCC#Cc1ccccc1C#Cc1ccccc1F	25.6	46.5	31.3	44.4	31.6	32.6	82.5	58.4	37.2	7.63	20.7	22.2	17.4	16.5	26.9	18.9	16.4	23.8	
COc1ccc(C(O)c2cc3c(N)c(C(=O)Nc4cccc(Cl)c4C)sc3nc2C)cc1 (centres undefined)	1.42	1.27		1.65	1.55	1.67	1.63	2.09	1.56	0.709	0.627	0.831	0.838	0.896	0.761	0.825		0.988	
O=C1CCC2CCc3cccc4oc1c2c34 (centres undefined)	> 100		> 100	> 100	> 100	> 100	> 100	> 100											
O=C1O[C@H](C(Cl)(Cl)Cl)N2CCCC12 (some centres undefined)	> 100	> 100	> 100	> 100	> 100	> 100	> 100	> 100											
CC1CCc2c(sc3ncnc(N/N=C/c4ccc(Cl)c(Cl)c4)c23)C1 (centres undefined)	70.3	43.8	71.6	> 100	54.6	64.5		89.6											33
CCNc1c(C(=O)N(CC)CC)c(=O)[nH]c2ncccc12	> 100	> 100	> 100	> 100	> 100	> 100	> 100	> 100											
O=C(Nc1c(Cl)cc([N+](=O)[O-])cc1Cl)C(=O)C1C(=O)NC(=S)NC1=O	> 100	> 100		> 100	> 100	> 100	> 100	> 100	> 100										
O=S1(=O)N(Cc2ccccc2)[C@@H](Cc2ccccc2)C2O[C@H]2[C@H](Cc2ccccc2)N1Cc1ccccc1 (some centres undefined)	> 7.5	> 7.5	> 7.5	> 7.5	> 7.5	> 7.5	> 7.5	> 7.5	> 7.5	> 7.5	> 7.5	> 7.5	5.38	6.75	> 7.5	> 7.5	> 7.5	> 7.5	
